Read-outs that look alike come from different tables or passages of the source.
What was measured:
mouse CAR (mCAR) = molecular target: T1, mouse CAR (mCAR) (Mus musculus, UniProt O35627); conditions: cited from earlier work
T1 sequence (O35627 1-358): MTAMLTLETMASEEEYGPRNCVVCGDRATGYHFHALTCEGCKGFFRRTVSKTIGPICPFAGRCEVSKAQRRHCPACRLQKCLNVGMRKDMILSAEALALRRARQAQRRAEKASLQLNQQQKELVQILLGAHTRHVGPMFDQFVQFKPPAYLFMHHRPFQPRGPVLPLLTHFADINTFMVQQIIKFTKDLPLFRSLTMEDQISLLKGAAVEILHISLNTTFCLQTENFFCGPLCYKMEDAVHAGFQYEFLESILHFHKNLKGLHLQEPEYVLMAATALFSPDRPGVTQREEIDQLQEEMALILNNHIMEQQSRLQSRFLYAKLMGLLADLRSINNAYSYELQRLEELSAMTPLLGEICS

human CAR (hCAR) = molecular target: T2, human CAR (hCAR) (Homo sapiens, UniProt Q14994); conditions: cited from earlier work
T2 sequence (Q14994 1-352): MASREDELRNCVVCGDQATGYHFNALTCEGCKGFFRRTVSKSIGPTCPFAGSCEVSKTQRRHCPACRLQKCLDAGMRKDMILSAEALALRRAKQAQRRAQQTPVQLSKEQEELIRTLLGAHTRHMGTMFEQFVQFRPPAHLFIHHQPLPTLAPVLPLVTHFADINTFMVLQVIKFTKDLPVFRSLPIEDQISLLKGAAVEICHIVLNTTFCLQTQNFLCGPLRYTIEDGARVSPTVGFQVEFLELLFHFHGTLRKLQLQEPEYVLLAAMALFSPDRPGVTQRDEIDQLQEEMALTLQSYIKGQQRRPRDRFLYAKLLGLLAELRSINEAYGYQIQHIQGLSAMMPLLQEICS

Colon Intestine-Chip = test: Barrier disruption/rescue assay in organoid-derived Colon Intestine-Chip (apparent permeability, 3 kDa dextran); type: cell-based, human
Experimental: As one example, to evaluate the integrity of the intestinal barrier 3 kDa Cascade Blue dextran (Sigma, D7132) was added to the epithelial compartment of the Duodenum-Chip at 0.1 mg/ml on the day of connecting a microfluidic device to flow, e.g., see exemplary timelines. Effluents of the endothelial compartment were sampled 3 hours after the addition of a dye, up to 24 hours, up to 48 hours, up to 72 hours, or at 48 hour intervals until the end of the assay, in order to determine the concentration of dye that has diffused through the membrane.
The apparent paracellular permeability (Papp) was calculated based on a standard curve and using the following formula: […]
In some embodiments, a microfluidic device as described herein, is used for an in vitro assay for evaluating a substance for its ability or efficacy of ‘rescuing’ barrier function. In some embodiments, a human intestine chip is used for an in vitro assay for evaluating a substance for ‘rescuing’ barrier function. In some embodiments, a human intestine chip is an organoids-derived colonic intestine chip. In some embodiments, Organoids-derived Colonic Epithelial Cells are seeded into one channel with Intestinal Microvascular Endothelial Cells seeded into an opposing channel separated by a membrane, as described herein. After seeding cells on Day 0, flow was initiated on Day 1 with stretch initiated on Day 2.
The following is an exemplary timeline for one embodiment of a Barrier Disruption/Rescue Assay, e.g. rescuing 3 hours of injury by a peptide substance, e.g. AT1002 (synthetic peptide H-FCIGRL-OH of ZO toxin) with AT1001, larzaride acetate. Day −5: experiment preparation (prep), as described herein; Day 0: Intestine chip seeding both cells types, epithelial and endothelial; Day 1 starting flow; Day 2 starting stretch, in some embodiments starting […] at lower levels then increasing up to 10% over 24 hours (1 day), over 2 days, or over 3 days; Day 5; starting Injury/Rescue Assay: using a known reversible injury inducing substance: Injure period starting at 0 hour continuing up to 3 hours, or more. Day 6 first readout time point (24 hours); Day 7, in some embodiments, Fix cells at 48 hours post injury; Days 7-21, in some embodiments, initiate at least one Endpoint Assay for analysis; and in some embodiments Day 21 is a report-out of assay. Exemplary check timepoints for readouts: 0, 24 and 48 hours after initiation of injury inducing substance. In some embodiments, Endpoint Assays and Analysis are done on Day 14. In some embodiments, Endpoint Assays and Analysis are done on Day 21. In some embodiments, a test substance for ‘rescuing’ damage may be evaluated within 14 days. In some embodiments, a test substance for ‘rescuing’ damage may be evaluated within 21 days from the beginning of cell culturing. […]

Caco-2 cell monolayers = conditions: cited from earlier work
Colon-Chip = test: IL-13 mediated enrichment of tuft cells in Colon-Chip; type: cell-based, human; conditions: 10 ng/ml
Experimental: Stimulation: Exposure of Colon-Chips and ileal and colonic organoids (serve as a control) to 10 ng/ml of IL-13.
Read-outs: mRNA expression of genes specific for Tuft cells: Trpm5, ChAT, Dclkl and for goblet cells: Muc2, TFF3, etc., (to assess concomitant expansion of goblet cell populations) at day 2, 3 and 6 post-treatment corresponding to day 4, 5 and 8 of Colon-Chip culture.
IL-13 treatment has no negative impact of Colon-Chip tissue morphology and barrier function.
Summary of IL-13 mediated enrichment of the tuft cells in Colon-Chip. […] We performed stimulation of Colon-Chips with IL-13 in order to drive tuft cell differentiation and enrich for the presence of these cells in Intestine-Chip platform. […] In some embodiments, Gene expression levels of Tuft cell (Trpm5, ChAT) and goblet cell (Muc2, TFF3) specific markers are evaluated.

CYP3A4 [1] = system: CYP3A4
CYP3A4 [2] = system: CYP3A4; remark: listed apart in the source
mouse PXR (mPXR) = molecular target: T3, mouse PXR (mPXR) (Mus musculus, UniProt O54915); conditions: cited from earlier work
T3 sequence (O54915 1-431): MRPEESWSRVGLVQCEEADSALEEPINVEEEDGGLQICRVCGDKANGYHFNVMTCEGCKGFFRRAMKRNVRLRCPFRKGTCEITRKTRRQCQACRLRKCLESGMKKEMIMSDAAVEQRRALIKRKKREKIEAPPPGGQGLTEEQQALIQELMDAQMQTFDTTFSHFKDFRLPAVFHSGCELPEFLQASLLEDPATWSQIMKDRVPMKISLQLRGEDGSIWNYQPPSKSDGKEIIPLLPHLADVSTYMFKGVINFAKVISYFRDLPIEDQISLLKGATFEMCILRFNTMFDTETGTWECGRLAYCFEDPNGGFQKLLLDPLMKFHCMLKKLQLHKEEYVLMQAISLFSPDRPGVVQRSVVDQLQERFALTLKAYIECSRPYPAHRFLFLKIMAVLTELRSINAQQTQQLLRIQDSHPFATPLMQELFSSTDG

human PXR (hPXR) = molecular target: T4, human PXR (hPXR) (Homo sapiens, UniProt O75469); conditions: cited from earlier work
T4 sequence (O75469 1-434): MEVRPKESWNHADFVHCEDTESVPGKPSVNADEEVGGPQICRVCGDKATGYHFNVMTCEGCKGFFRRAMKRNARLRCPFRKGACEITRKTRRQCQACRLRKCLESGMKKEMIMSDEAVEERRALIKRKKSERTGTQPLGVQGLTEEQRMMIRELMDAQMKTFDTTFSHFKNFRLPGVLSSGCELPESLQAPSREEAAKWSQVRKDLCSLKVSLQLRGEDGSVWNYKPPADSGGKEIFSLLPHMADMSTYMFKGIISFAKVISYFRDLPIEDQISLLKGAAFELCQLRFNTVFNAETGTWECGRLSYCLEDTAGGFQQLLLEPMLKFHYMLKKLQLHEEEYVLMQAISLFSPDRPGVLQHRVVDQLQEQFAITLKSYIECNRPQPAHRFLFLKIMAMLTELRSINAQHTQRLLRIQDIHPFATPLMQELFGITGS

MDR1 (P-gp) [3] = molecular target: T5, MDR1 (P-gp) (Homo sapiens, UniProt P08183); conditions: 22 μM
Experimental: (§1) To evaluate the applicability of this system for the studies of pharmacology related questions we assessed the presence and localization of major intestinal drug transporters in Duodenum-Chips established from the tissue of 3 different donors by qRT-PCR and immunofluorescent imaging.
(§2) The transporter activity of MDR-1/P-gp was assessed using the MDR1 Efflux Assay Kit (e.g., ECM910, Millipore), as per manufacturer's instructions. […] Intracellular accumulation of dye, was detected by fluorescent imaging (Olympus IX83) and measured in the presence and absence of MDR-1 specific inhibitor vinblastine (22 μM). At least three independent experiments were performed for Caco2 Intestine-Chips and Duodenum-Chips, each using chips established from a different donor of biopsy-derived organoids. At least three different chips were used per condition, images of each were taken at three different fields of view, digitally processed and quantified using Fiji software.

MDR1 (P-gp) [4] = molecular target: T5, MDR1 (P-gp); conditions: 22 μM; remark: listed apart in the source
Experimental: as §1, §2

[5] = system: Mixed primary murine intestinal cultures; conditions: 3 uM, 2 hours, GLP-1 active ELISA kit, Millipore, cited from earlier work

T5 sequence (P08183 whole entry): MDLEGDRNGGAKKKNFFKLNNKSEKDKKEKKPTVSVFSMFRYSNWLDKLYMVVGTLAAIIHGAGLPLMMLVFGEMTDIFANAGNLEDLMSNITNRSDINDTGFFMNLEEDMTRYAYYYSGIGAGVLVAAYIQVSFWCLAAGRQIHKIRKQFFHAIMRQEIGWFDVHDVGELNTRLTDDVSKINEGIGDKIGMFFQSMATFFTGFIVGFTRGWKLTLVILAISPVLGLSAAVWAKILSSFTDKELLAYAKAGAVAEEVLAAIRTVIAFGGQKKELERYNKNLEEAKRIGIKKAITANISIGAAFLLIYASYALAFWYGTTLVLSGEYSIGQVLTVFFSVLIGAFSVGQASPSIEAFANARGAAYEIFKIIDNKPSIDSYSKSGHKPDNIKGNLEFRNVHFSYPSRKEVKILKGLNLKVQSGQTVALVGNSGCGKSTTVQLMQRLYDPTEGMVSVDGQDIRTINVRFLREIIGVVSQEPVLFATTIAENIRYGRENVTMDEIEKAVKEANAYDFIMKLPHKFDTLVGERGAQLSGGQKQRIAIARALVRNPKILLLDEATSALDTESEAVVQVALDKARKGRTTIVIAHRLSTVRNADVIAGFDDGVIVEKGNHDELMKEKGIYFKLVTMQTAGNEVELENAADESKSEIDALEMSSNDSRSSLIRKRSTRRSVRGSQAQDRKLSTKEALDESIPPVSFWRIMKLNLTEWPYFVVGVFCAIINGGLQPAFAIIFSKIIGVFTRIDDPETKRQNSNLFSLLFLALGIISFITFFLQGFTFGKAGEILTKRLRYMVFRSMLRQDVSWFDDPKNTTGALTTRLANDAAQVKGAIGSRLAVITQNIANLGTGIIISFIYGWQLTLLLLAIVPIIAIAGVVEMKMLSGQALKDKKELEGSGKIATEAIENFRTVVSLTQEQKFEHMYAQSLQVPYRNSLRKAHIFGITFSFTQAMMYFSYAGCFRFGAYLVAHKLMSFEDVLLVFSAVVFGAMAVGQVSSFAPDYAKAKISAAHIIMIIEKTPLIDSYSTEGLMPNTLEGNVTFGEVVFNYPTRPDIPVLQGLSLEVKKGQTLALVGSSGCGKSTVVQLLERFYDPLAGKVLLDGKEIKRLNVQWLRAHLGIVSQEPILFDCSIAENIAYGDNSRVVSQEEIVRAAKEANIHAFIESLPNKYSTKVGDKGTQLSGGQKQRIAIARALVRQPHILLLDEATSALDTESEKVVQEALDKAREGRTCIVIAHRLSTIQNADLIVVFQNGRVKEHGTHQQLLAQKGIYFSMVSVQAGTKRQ

Clc1ccc(-c2nc3sccn3c2C=NOCc2ccc(Cl)c(Cl)c2)cc1 [CITCO, 6-(4-chlorophenyl)imidazo[2,1-b][1,3]thiazole-5-carbaldehyde-O-(3,4-dichlorobenzyl)oxime]
agonism at mouse CAR (mouse CAR (mCAR)): not mouse CAR
agonism at human CAR (human CAR (hCAR)): strong agonist

H-FCIGRL-OH [AT1002]
injury effect on barrier (apparent permeability, 3 KDa Dextran Cascade Blue) (Colon Intestine-Chip; organoid-derived colon chip): barrier disruption in a concentration-dependent manner
lucifer yellow permeability (Caco-2 cell monolayers; Caco-2 cell monolayers): increase
transepithelial electrical resistance (TEER) (Caco-2 cell monolayers; Caco-2 cell monolayers): reversible reduction
cytotoxicity (Caco-2 cell monolayers): no overt cytotoxicity

Larazotide acetate
restoration of barrier integrity/function injured by IFN-gamma (Colon Intestine-Chip; 12.5 mM, IFN-gamma 25 ng/ml, 3 KDa Dextran Texas Red, N=5): partially restored/rescued
restore/rescue of barrier integrity (Colon Intestine-Chip; Colon Intestine-Chip exposed to AT1002, 20 mM, after 24 hours, N=5): up to 100%
increase in TJ permeability elicited by basolaterally applied cytokines (Caco-2 cell monolayers; apically applied): inhibited

IL-13: cytokine used to drive tuft cell differentiation
effect on Colon-Chip morphology and barrier function (Colon-Chip): no negative effect
tuft cell population (Colon-Chip): Enrichment

C=C1/C(=C\C=C2/CCC[C@]3(C)[C@@H]([C@H](C)CCCC(C)(C)O)CC[C@@H]23)C[C@@H](O)C[C@@H]1O [VD3, 1,25-dihidroxyvitamin D3]
CYP3A4 drug metabolism activity (CYP3A4 [1]; Duodenum Intestine-Chip): significantly increased
CYP3A4 protein levels (CYP3A4 [1]; Duodenum Intestine-Chip): significantly increased
induction of CYP3A4 expression relative to DMSO-treated controls (CYP3A4 [1]; Duodenum-Chip, average of 3 donors, 20 μM RIF or 100 nM VD3, 48 h): 4.1 fold
CYP3A4 induction (in words) (CYP3A4 [2]; Caco-2 Intestine-Chip): induced
metabolic activity of CYP3A4 (CYP3A4 [2]; Caco-2 Intestine-Chip): no effect
CYP3A4 induction (in words) (CYP3A4 [2]; Caco-2 Intestine-Chip, listed as Vitamin D3): showed induction
CYP3A4 protein level (Western Blot) (CYP3A4 [2]; Caco-2 cells after inducer treatment): below the limit of detection
enhancement of CYP3A4 mRNA level (CYP3A4 [2]; Caco-2 cells, 100 nM, 48 h): 316 fold

CC(=O)[C@H]1[C@H](C#N)C[C@H]2[C@@H]3CC=C4C[C@@H](O)CC[C@]4(C)[C@H]3CC[C@@]21C [PCN, 5-pregnen-3β-ol-20-one-16α-carbonitrile]
agonism at mouse PXR (mouse PXR (mPXR)): potent mPXR agonist
agonism at human PXR (human PXR (hPXR)): poor agonist

CC[C@]1(O)C[C@@H]2CN(CCc3c([nH]c4ccccc34)[C@@](C(=O)OC)(c3cc4c(cc3OC)N(C)[C@H]3[C@@](O)(C(=O)OC)[C@H](OC(C)=O)[C@]5(CC)C=CCN6CC[C@]43[C@@H]65)C2)C1 [vinblastine]
increase in intracellular accumulation of rhodamine 123 (MDR1 (P-gp) [3]): 1.84 fold
increase in intracellular accumulation of rhodamine 123 (MDR1 (P-gp) [4]): 2.14 fold

Clc1cnc(Oc2ccc(Oc3ncc(Cl)cc3Cl)cc2)c(Cl)c1 [TCPOBOP, 1,4-bis-[2-(3,5-dichloropyridyloxy)]benzene,3,3′.5.5′-tetrachloro-1,4-bis(pyridyloxy)benzene]
selectivity mCAR versus hCAR (mouse CAR (mCAR)): more selective for mCAR than hCAR

IFN-gamma: injury inducing cytokine
permeability of Colon Intestine Chip (Colon Intestine-Chip; 10 ng/ml - 50 ng/ml, 48 hours, 3 KDa Dextran Cascade Blue): increases post 48 hours independent of IFN-gamma concentrations tested

Cc1onc(-c2ccccc2Cl)c1C(=O)N(C)c1ccc(Cl)cc1 [GPBAR-A]
GLP-1 Concentration (fold increase) in the presence of 10 mM glucose ([5]; in the presence of 10 mM glucose): 3.5 fold increase
GLP-1 Concentration (fold increase) [5]: 2.5 fold increase

CCOP(=O)(OCC)C(=Cc1cc(C(C)(C)C)c(O)c(C(C)(C)C)c1)P(=O)(OCC)OCC [SR12813]
agonism at mouse PXR (mouse PXR (mPXR)): not for mouse PXR

Source: patent US20200224136A1, “INTESTINE-CHIP: DIFFERENTIAL GENE EXPRESSION MODEL” (priority 2019, published 2020)
